From PubChem BioAssay (NCI)
Values joined by “and” are separate entries in the source; they are usually repeats but may differ in a detail not shown here. Equal entries are not always repeated.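 Test compounds were applied to cells in 96-well plates for 48 hours at 5 doses. The concentration for 50% growth inhibition is given as GI50. Definition used: TGI = concentration required for complete inhibition of growth.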

Legend:
Experiment in all cases: NCI-60 cell line screen, 48 h
HT29 colon = system: HT29 colon
SK-OV-3 ovarian = system: SK-OV-3 ovarian
UACC-257 melanoma = system: UACC-257 melanoma
HCT-116 colon = system: HCT-116 colon
SW-620 colon = system: SW-620 colon
M14 melanoma = system: M14 melanoma
LOX IMVI melanoma = system: LOX IMVI melanoma
SR leukemia = system: SR leukemia
NCI-H522 lung = system: NCI-H522 lung
SN12C renal = system: SN12C renal
SK-MEL-28 melanoma = system: SK-MEL-28 melanoma
SF-539 CNS = system: SF-539 CNS
NCI/ADR-RES ovarian = system: NCI/ADR-RES ovarian
RPMI-8226 leukemia = system: RPMI-8226 leukemia
MDA-N = system: MDA-N
NCI-H226 lung = system: NCI-H226 lung
EKVX NSCLC = system: EKVX NSCLC
KM12 colon = system: KM12 colon
RXF 393 renal = system: RXF 393 renal
MDA-MB-231 breast = system: MDA-MB-231 breast
A498 renal = system: A498 renal
ACHN renal = system: ACHN renal
SF-295 CNS = system: SF-295 CNS
HOP-92 NSCLC = system: HOP-92 NSCLC
HCC-2998 colon = system: HCC-2998 colon
SK-MEL-5 melanoma = system: SK-MEL-5 melanoma
CCRF-CEM leukemia = system: CCRF-CEM leukemia
TK-10 renal = system: TK-10 renal
SNB-19 CNS = system: SNB-19 CNS
HS 578T breast = system: HS 578T breast
U251 CNS = system: U251 CNS
COLO 205 colon = system: COLO 205 colon
786-0 renal = system: 786-0 renal
MOLT-4 leukemia = system: MOLT-4 leukemia
SNB-75 CNS = system: SNB-75 CNS
A549 NSCLC = system: A549 NSCLC
SF-268 CNS = system: SF-268 CNS
UO-31 renal = system: UO-31 renal
MCF7 breast = system: MCF7 breast
OVCAR-3 ovarian = system: OVCAR-3 ovarian
MDA-MB-435 = system: MDA-MB-435
NCI-H23 lung = system: NCI-H23 lung
T-47D breast = system: T-47D breast
NCI-H460 lung = system: NCI-H460 lung
PC-3 prostate = system: PC-3 prostate
MALME-3M melanoma = system: MALME-3M melanoma
IGROV1 ovarian = system: IGROV1 ovarian
HCT-15 colon = system: HCT-15 colon
DU-145 prostate = system: DU-145 prostate
OVCAR-8 ovarian = system: OVCAR-8 ovarian
OVCAR-4 ovarian = system: OVCAR-4 ovarian
K-562 leukemia = system: K-562 leukemia
OVCAR-5 ovarian = system: OVCAR-5 ovarian
HL-60(TB) leukemia = system: HL-60(TB) leukemia
SK-MEL-2 melanoma = system: SK-MEL-2 melanoma
BT-549 breast = system: BT-549 breast
UACC-62 melanoma = system: UACC-62 melanoma
HOP-62 NSCLC = system: HOP-62 NSCLC
CAKI-1 renal = system: CAKI-1 renal

CC(C)(C)c1cc(C2COC(=O)COCC(=O)OCCOCCOCCO2)cc(C(C)(C)C)c1O (stereo not given)
TGI (HT29 colon): > 100 µM
TGI (SK-OV-3 ovarian): 55.9 µM
TGI (UACC-257 melanoma): > 100 µM
TGI (HCT-116 colon): > 100 µM
TGI (SW-620 colon): > 100 µM
TGI (M14 melanoma): 41.3 µM
TGI (LOX IMVI melanoma): > 80.2 µM
TGI (SR leukemia): > 100 µM
TGI (NCI-H522 lung): > 100 µM
TGI (SN12C renal): 20.8 µM
TGI (SK-MEL-28 melanoma): 38.9 µM
TGI (SF-539 CNS): > 79.7 µM
TGI (NCI/ADR-RES ovarian): > 100 µM
TGI (RPMI-8226 leukemia): > 100 µM
TGI (MDA-N): 38.5 µM
TGI (NCI-H226 lung): > 100 µM
TGI (EKVX NSCLC): > 100 µM
TGI (KM12 colon): > 100 µM
TGI (RXF 393 renal): 41.3 µM
TGI (MDA-MB-231 breast): > 100 µM
TGI (A498 renal): > 91.9 µM
TGI (ACHN renal): 37.2 µM
TGI (SF-295 CNS): 58.5 µM
TGI (HOP-92 NSCLC): 59.3 µM
TGI (HCC-2998 colon): 27.9 µM
TGI (SK-MEL-5 melanoma): > 100 µM
TGI (CCRF-CEM leukemia): > 100 µM
TGI (TK-10 renal): 43.7 µM
TGI (SNB-19 CNS): > 100 µM
TGI (HS 578T breast): 45.8 µM
TGI (U251 CNS): > 100 µM
TGI (COLO 205 colon): > 100 µM
TGI (786-0 renal): 43.3 µM
TGI (MOLT-4 leukemia): > 100 µM
TGI (SNB-75 CNS): 37 µM
TGI (A549 NSCLC): > 31.6 µM
TGI (SF-268 CNS): 41.3 µM
TGI (UO-31 renal): 35.7 µM
TGI (MCF7 breast): > 100 µM
TGI (OVCAR-3 ovarian): > 100 µM
TGI (MDA-MB-435): 43 µM
TGI (NCI-H23 lung): > 100 µM
TGI (T-47D breast): > 100 µM
TGI (NCI-H460 lung): 98.5 µM
TGI (PC-3 prostate): > 100 µM
TGI (MALME-3M melanoma): > 100 µM
TGI (IGROV1 ovarian): > 100 µM
TGI (HCT-15 colon): > 100 µM
TGI (DU-145 prostate): 41.7 µM
TGI (OVCAR-8 ovarian): > 100 µM
TGI (OVCAR-4 ovarian): > 100 µM
TGI (K-562 leukemia): > 100 µM
TGI (OVCAR-5 ovarian): > 100 µM
TGI (HL-60(TB) leukemia): > 31.6 µM
TGI (SK-MEL-2 melanoma): 90.3 µM
TGI (BT-549 breast): > 100 µM
TGI (UACC-62 melanoma): > 69.1 µM
TGI (HOP-62 NSCLC): > 100 µM
TGI (CAKI-1 renal): 51.3 µM

CO/C(=N\N=C\c1cccc(C(F)(F)F)c1)c1ccncc1
GI50 (HT29 colon): 3.47 µM
TGI (HT29 colon): 19 µM
TGI (SK-OV-3 ovarian): 99.1 µM
TGI (UACC-257 melanoma): > 100 µM
TGI (HCT-116 colon): > 100 µM
TGI (SW-620 colon): > 100 µM
TGI (M14 melanoma): 94.4 µM
GI50 (LOX IMVI melanoma): 10.2 µM
TGI (LOX IMVI melanoma): > 100 µM
GI50 (SR leukemia): 3.33 µM
TGI (SR leukemia): 46.3 µM
GI50 (NCI-H522 lung): 6.41 µM
TGI (NCI-H522 lung): 30.3 µM
GI50 (SN12C renal): 16.7 µM
TGI (SN12C renal): > 100 µM
TGI (SK-MEL-28 melanoma): > 100 µM
TGI (SF-539 CNS): 37.1 µM
GI50 (NCI/ADR-RES ovarian): 5.37 µM
GI50 (RPMI-8226 leukemia): 7.15 µM
TGI (RPMI-8226 leukemia): 81.9 µM
GI50 (MDA-N): 3.25 µM
TGI (MDA-N): 5.17 µM and 32.5 µM
TGI (NCI-H226 lung): 27.4 µM
TGI (EKVX NSCLC): 77.3 µM
TGI (KM12 colon): > 100 µM
TGI (RXF 393 renal): 33.2 µM
GI50 (MDA-MB-231 breast): 10.8 µM
TGI (MDA-MB-231 breast): > 100 µM
TGI (A498 renal): 42.8 µM
GI50 (ACHN renal): 27.3 µM
TGI (ACHN renal): > 100 µM
GI50 (SF-295 CNS): 7.59 µM
TGI (HOP-92 NSCLC): > 100 µM
TGI (HCC-2998 colon): 22.5 µM
TGI (SK-MEL-5 melanoma): 32.4 µM
GI50 (CCRF-CEM leukemia): 3.71 µM
TGI (CCRF-CEM leukemia): 84.1 µM
TGI (TK-10 renal): > 100 µM
GI50 (SNB-19 CNS): 14.2 µM
TGI (SNB-19 CNS): 54.6 µM
TGI (HS 578T breast): 38.7 µM
TGI (U251 CNS): 80.2 µM
TGI (COLO 205 colon): 39.6 µM
GI50 (786-0 renal): 8.71 µM
TGI (786-0 renal): 24.8 µM
TGI (SNB-75 CNS): 52.9 µM
GI50 (A549 NSCLC): 15.5 µM
TGI (A549 NSCLC): > 100 µM
GI50 (UO-31 renal): 6.09 µM
TGI (UO-31 renal): 40.8 µM
GI50 (MCF7 breast): 7.33 µM
TGI (MCF7 breast): > 100 µM
TGI (OVCAR-3 ovarian): 84.1 µM
GI50 (MDA-MB-435): 3.33 µM
TGI (MDA-MB-435): 6.17 µM and 25.5 µM
TGI (NCI-H23 lung): 42.6 µM
TGI (T-47D breast): > 100 µM
TGI (NCI-H460 lung): 48.8 µM
TGI (PC-3 prostate): > 100 µM
GI50 (MALME-3M melanoma): 9.42 µM
TGI (MALME-3M melanoma): > 100 µM
TGI (IGROV1 ovarian): 79.3 µM
GI50 (HCT-15 colon): 4.54 µM
TGI (HCT-15 colon): 68.2 µM
GI50 (DU-145 prostate): 33.6 µM
TGI (DU-145 prostate): > 100 µM
GI50 (OVCAR-8 ovarian): 17.4 µM
TGI (OVCAR-8 ovarian): > 100 µM
TGI (OVCAR-4 ovarian): > 100 µM
GI50 (K-562 leukemia): 3.08 µM
TGI (K-562 leukemia): > 100 µM
TGI (OVCAR-5 ovarian): > 100 µM
GI50 (HL-60(TB) leukemia): 2.45 µM
TGI (HL-60(TB) leukemia): 7.77 µM and 18 µM
GI50 (SK-MEL-2 melanoma): 22.6 µM
TGI (SK-MEL-2 melanoma): > 100 µM
GI50 (BT-549 breast): 8.78 µM
TGI (BT-549 breast): 68 µM
TGI (UACC-62 melanoma): > 100 µM
GI50 (HOP-62 NSCLC): 13.2 µM
TGI (HOP-62 NSCLC): > 100 µM
TGI (CAKI-1 renal): 9.48 µM

CC(=O)NC1=CC(=O)c2cc(C)cc(O)c2C1=O
TGI (HT29 colon): 46.9 µM
TGI (SK-OV-3 ovarian): > 83.5 µM
TGI (UACC-257 melanoma): 4.79 µM
TGI (HCT-116 colon): 16.3 µM
TGI (SW-620 colon): 10.6 µM
TGI (M14 melanoma): 3.53 µM
TGI (LOX IMVI melanoma): 7.74 µM
TGI (SR leukemia): 37.3 µM
TGI (NCI-H522 lung): 20.2 µM
TGI (SN12C renal): 14.2 µM
TGI (SK-MEL-28 melanoma): 1.54 µM
TGI (SF-539 CNS): 14.8 µM
TGI (NCI/ADR-RES ovarian): 23.9 µM
TGI (RPMI-8226 leukemia): 12.2 µM
TGI (MDA-N): 3.02 µM
TGI (NCI-H226 lung): 38.5 µM
TGI (EKVX NSCLC): 31.7 µM
TGI (KM12 colon): 33.4 µM
TGI (RXF 393 renal): 26.8 µM
TGI (MDA-MB-231 breast): 24.7 µM
TGI (A498 renal): 27.5 µM
TGI (ACHN renal): 23 µM
TGI (SF-295 CNS): 39.4 µM
TGI (HOP-92 NSCLC): 22.7 µM
TGI (HCC-2998 colon): 5.69 µM
TGI (SK-MEL-5 melanoma): 2.65 µM
TGI (CCRF-CEM leukemia): 12.9 µM
TGI (TK-10 renal): 45.9 µM
TGI (SNB-19 CNS): > 62.7 µM
TGI (HS 578T breast): > 84.5 µM
TGI (U251 CNS): 36.4 µM
TGI (COLO 205 colon): 13.3 µM
TGI (786-0 renal): 27.3 µM
TGI (MOLT-4 leukemia): 24.2 µM
TGI (SNB-75 CNS): 37 µM
TGI (A549 NSCLC): 19 µM
TGI (SF-268 CNS): 22.6 µM
TGI (UO-31 renal): 20 µM
TGI (MCF7 breast): 7.8 µM
TGI (OVCAR-3 ovarian): 8.37 µM
TGI (MDA-MB-435): 1.96 µM
TGI (NCI-H23 lung): 5.21 µM
TGI (T-47D breast): 35 µM
TGI (NCI-H460 lung): 36.1 µM
TGI (PC-3 prostate): 40.7 µM
TGI (MALME-3M melanoma): 4.33 µM
TGI (IGROV1 ovarian): 26.4 µM
TGI (HCT-15 colon): 13.8 µM
TGI (DU-145 prostate): 14.1 µM
TGI (OVCAR-8 ovarian): 18.7 µM
TGI (OVCAR-4 ovarian): 20.4 µM
TGI (K-562 leukemia): 14.7 µM
TGI (OVCAR-5 ovarian): 26.1 µM
TGI (HL-60(TB) leukemia): 5.24 µM
TGI (SK-MEL-2 melanoma): 17.9 µM
TGI (BT-549 breast): 18.9 µM
TGI (UACC-62 melanoma): 4.71 µM
TGI (HOP-62 NSCLC): 35.2 µM
TGI (CAKI-1 renal): 42.9 µM
